Source: US20020137929A1, “1 - (3-heterocyclylphenyl) isothiourea, -isourea, -guanidine and -amidine herbicidal agents” (Intellectual Property Department, BASF Aktiengesellschaft, priority 1998, published 2002)

What was measured:
ORYSAT (Rice, Tebonnet) [1] = test: Rice tolerance to post-transplant applications, flooded paddy conditions (Table IV); type: in vivo, Oryza sativa, (L.) Tebonnet
Source text: Results of herbicide evaluation are expressed on a rating scale (0-9). The scale is based upon a visual observation of plant stand, vigor, malformation, size, chlorosis and overall plant appearance as compared with a control.
Plastic containers containing weeds which are 3 to 5 cm tall and rice seedlings at the 1.5 to 2.5 leaf stage are flooded with water. The water is maintained at 1.5 to 3 cm above the soil surface for the duration of the experiment. Test compounds are applied as aqueous/ acetone mixtures 50/50 v/v directly into the flood water to provide the equivalent of about 0.0313 to 0.500 kg/ha of active ingredient. The treated containers are placed on greenhouse benches and cared for in accordance with conventional greenhouse procedures. Three to four weeks after treatment, the test is terminated and each container is examined and herbicidal effect rated according to the rating system provided in Example 37. The compounds evaluated are reported by compound number given in Example 37.

MOOVA (Monochoria) = test: Postemergence weed control under flooded paddy conditions; type: in vivo, Monochoria vaginalis; conditions: postemergence weeds, 3-4 weeks after treatment
Method in brief: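 Flood-water application, about 0.0313–0.500 kg/ha a.i. in aqueous/acetone 50/50 v/v; water depth 1.5–3 cm throughout. Weeds 3–5 cm, rice 1.5–2.5 leaf. Greenhouse; 0–9 visual rating vs control at 3–4 wk.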

CASOB (Sicklepod) = test: Postemergence herbicidal evaluation; type: in vivo, Cassia obtusifolia; conditions: for CASOB herbicidal rating: postemergence
Method in brief: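 Seedlings grown about two weeks were sprayed at 40 psi with compound dispersed in 50/50 acetone/water plus 0.5% TWEEN 20, at about 0.0156 to 0.500 kg/ha. Plants were kept in the greenhouse and scored 4–5 weeks later on a 0–9 visual scale against untreated controls.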

ORYSAT (Rice, Tebonnet) [2] = test: Rice tolerance to post-transplant applications, flooded paddy conditions (Table III); type: in vivo, Oryza sativa, (L.) Tebonnet
Method in brief: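 Injury scored 0-9 by eye against untreated control, judging stand, vigor, malformation, size and chlorosis, three to four weeks after treatment. Compound in 50/50 aqueous/acetone, about 0.0313 to 0.500 kg/ha, was applied to paddy water (1.5 to 3 cm depth) three days after transplanting paired ten-day-old Tebonnet rice seedlings.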

[3] = test system: GLXMAW (Soybean, Williams); test: Preemergence herbicidal evaluation; type: in vivo, Glycine max, (L.) Merr. cv Williams; conditions: rated 4-5 weeks after treatment
Method in brief: (§1)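 Test compound, dissolved in aqueous acetone, was sprayed over planted soil cups at an equivalent of about 0.0156 to 0.500 kg/ha; seeds had been mixed with potting soil. Greenhouse growth followed, with visual 0-9 scoring of injury at four to five weeks.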

[4] = test system: TRZAWR (Wheat, Winter, cv Riband); test: Preemergence herbicidal evaluation; type: in vivo, Triticum aestivum; conditions: rated 4-5 weeks after treatment
Method in brief: as §1

[5] = test system: SAGPY (Arrowhead (Pygmaea)); test: Preemergence weed control under flooded paddy conditions; type: in vivo, Sagittaria pygmaea; conditions: rated 3-4 weeks after treatment
Method in brief: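 Flooded-pot preemergence screen with silt loam and seeds in the upper 0.5 cm. Dose about 0.0313 to 0.500 kg/ha, delivered into flood water; visual 0-9 score after 3 to 4 weeks.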

ORYSAT (Rice, Tebonnet) [6] = test: Preemergence herbicidal evaluation; type: in vivo, Oryza sativa, (L.) Tebonnet; conditions: rated 4-5 weeks after treatment
Method in brief: as §1

[7] = rate 0.0313 kg/ha, flooded paddy, post-transplant rice, 3-4 weeks after treatment
[8] = rate 0.0625 kg/ha, flooded paddy, post-transplant rice, 3-4 weeks after treatment
[9] = rate 0.1250 kg/ha, flooded paddy, post-transplant rice, 3-4 weeks after treatment
[10] = rate 0.2500 kg/ha, flooded paddy, post-transplant rice, 3-4 weeks after treatment
[11] = 0.0313 kg/ha, post-transplant rice, flooded paddy, rated 3-4 weeks after treatment
[12] = 0.0625 kg/ha, post-transplant rice, flooded paddy, rated 3-4 weeks after treatment
[13] = 0.1250 kg/ha, post-transplant rice, flooded paddy, rated 3-4 weeks after treatment
[14] = 0.2500 kg/ha, post-transplant rice, flooded paddy, rated 3-4 weeks after treatment

SMILES | Herbicidal rating ORYSAT (rice tolerance) (ORYSAT (Rice, Tebonnet) [1]; in vivo) | Herbicidal rating MOOVA (MOOVA (Monochoria); rate 0.2500 kg/ha) | Postemergence herbicidal rating CASOB (CASOB (Sicklepod); Rate 0.0158 kg/ha) | Postemergence herbicidal rating CASOB (CASOB (Sicklepod); Rate 0.0315 kg/ha) | Postemergence herbicidal rating CASOB (CASOB (Sicklepod); Rate 0.0630 kg/ha) | Herbicidal rating ORYSAT (rice tolerance) (ORYSAT (Rice, Tebonnet) [2]; in vivo) | Preemergence herbicidal rating GLXMAW ([3]; rate 0.0313 kg/ha) | Preemergence herbicidal rating GLXMAW ([3]; rate 0.0625 kg/ha) | Preemergence herbicidal rating GLXMAW ([3]; rate 0.1250 kg/ha) | Preemergence herbicidal rating GLXMAW ([3]; rate 0.2500 kg/ha) | Preemergence herbicidal rating TRZAWR ([4]; rate 0.0313 kg/ha) | Preemergence herbicidal rating TRZAWR ([4]; rate 0.0625 kg/ha) | Preemergence herbicidal rating TRZAWR ([4]; rate 0.1250 kg/ha) | Preemergence herbicidal rating TRZAWR ([4]; rate 0.2500 kg/ha) | Herbicidal rating SAGPY ([5]; 0.2500 kg/ha) | Preemergence herbicidal rating ORYSAT (ORYSAT (Rice, Tebonnet) [6]; rate 0.0313 kg/ha) | Preemergence herbicidal rating ORYSAT (ORYSAT (Rice, Tebonnet) [6]; rate 0.0625 kg/ha) | Preemergence herbicidal rating ORYSAT (ORYSAT (Rice, Tebonnet) [6]; rate 0.1250 kg/ha) | Preemergence herbicidal rating ORYSAT (ORYSAT (Rice, Tebonnet) [6]; rate 0.2500 kg/ha) | Herbicidal rating MOOVA (MOOVA (Monochoria); rate 0.0625 kg/ha) | other results
Cn1c(C(F)(F)F)cc(=O)n(-c2cc(/N=C3/SCC(=O)N3CC(=O)O)c(Cl)cc2F)c1=O [Compound 52, 2-{{2-Chloro-5-[3,6-dihydro-3-methyl-2,6-dioxo-4-(trifluoromethyl)-1(2H)-pyrimidinyl]-4-fluoro-phenyl}imino}-4-oxo-3-thiazolidineacetic acid] | 0.0 | 4.0 | 1.0 | 1.0 | 2.0 | 0.0 | 0.0 | 1.0 | 1.0 | 2.0 | 0.0 | 0.0 | 2.0 | 5.0 | 0.0 | 0.0 | 0.0 | 0.0 | 4.0 |  | 
CCOC(=O)CN1C(=O)C(=Cc2ccc(F)cc2)SC1=Nc1cc(-n2c(=O)cc(C(F)(F)F)n(C)c2=O)c(F)cc1Cl [Compound 21, Ethyl 2-{{2-chloro-5-[3,6-dihydro-3-methyl-2,6-dioxo-4-(trifluoromethyl)-1(2H)-pyrimidinyl]-4-fluorophenyl}imino}-5-(p-fluorobenzylidene)-4-oxo-3-thiazolidineacetate] | 0.0 |  |  |  |  | 0.0 |  |  |  |  |  |  |  |  |  |  |  |  |  |  | Herbicidal rating MOOVA (MOOVA (Monochoria); rate 0.1160 kg/ha): 0.0; Herbicidal rating MOOVA (MOOVA (Monochoria); rate 0.2310 kg/ha): 0.0; Herbicidal rating MOOVA (MOOVA (Monochoria); rate 0.4630 kg/ha): 0.0; CASOB herbicidal rating (CASOB (Sicklepod); rate 0.0158 kg/ha): 0.0; CASOB herbicidal rating (CASOB (Sicklepod); rate 0.0315 kg/ha): 0.0; CASOB herbicidal rating (CASOB (Sicklepod); rate 0.0630 kg/ha): 0.0; GLXMAW preemergence herbicidal rating ([3]; rate 0.2500 kg/ha): 0.0; TRZAWR preemergence herbicidal rating ([4]; rate 0.2500 kg/ha): 0.0; Herbicidal rating SAGPY ([5]; 0.1160 kg/ha): 0.0; Herbicidal rating SAGPY ([5]; 0.2310 kg/ha): 0.0; Herbicidal rating SAGPY ([5]; 0.4630 kg/ha): 0.0; ORYSAT preemergence herbicidal rating (ORYSAT (Rice, Tebonnet) [6]; rate 0.2500 kg/ha): 0.0
CCOC(=O)COc1ccccc1CC1S/C(=N/c2cc(-n3c(=O)cc(C(F)(F)F)n(C)c3=O)c(F)cc2Cl)N(CC(=O)OCC)C1=O (stereo not shown) [Compound 42, 2-{{2-Chloro-5-[3,6-dihydro-3-methyl-2,6-dioxo-4-(trifluoromethyl)-1(2H)-pyrimidinyl]-4-fluoro-phenyl}imino}-5-(o-hydroxybenzyl)-4-oxo-3-thiazolidineacetic acid, ethyl ester, ester with ethyl glycolate] |  | 9.0 | 4.0 | 3.0 | 7.0 |  | 0.0 | 0.0 | 1.0 | 1.0 | 0.0 | 0.0 | 0.0 | 0.0 | 3.0 | 0.0 | 0.0 | 0.0 | 0.0 | 9.0 | Herbicidal rating ORYSAT (rice tolerance) (ORYSAT (Rice, Tebonnet) [1]; [7]): 0.0; Herbicidal rating ORYSAT (rice tolerance) (ORYSAT (Rice, Tebonnet) [1]; [8]): 0.0; Herbicidal rating ORYSAT (rice tolerance) (ORYSAT (Rice, Tebonnet) [1]; [9]): 0.0; Herbicidal rating ORYSAT (rice tolerance) (ORYSAT (Rice, Tebonnet) [1]; [10]): 0.0; Herbicidal rating MOOVA (MOOVA (Monochoria); rate 0.0313 kg/ha): 7.0; Herbicidal rating MOOVA (MOOVA (Monochoria); rate 0.1250 kg/ha): 9.0; Herbicidal rating ORYSAT (rice tolerance) (ORYSAT (Rice, Tebonnet) [2]; [11]): 0.0; Herbicidal rating ORYSAT (rice tolerance) (ORYSAT (Rice, Tebonnet) [2]; [12]): 0.0; Herbicidal rating ORYSAT (rice tolerance) (ORYSAT (Rice, Tebonnet) [2]; [13]): 0.0; Herbicidal rating ORYSAT (rice tolerance) (ORYSAT (Rice, Tebonnet) [2]; [14]): 0.0; Herbicidal rating SAGPY ([5]; 0.0313 kg/ha): 0.0; Herbicidal rating SAGPY ([5]; 0.0625 kg/ha): 0.0; Herbicidal rating SAGPY ([5]; 0.1250 kg/ha): 0.0
Cn1c(C(F)(F)F)cc(=O)n(-c2cc(N=C3SCC(=O)N3CCC(=O)O)c(Cl)cc2F)c1=O [Compound 31, 2-{{2-Chloro-5-[3,6-dihydro-3-methyl-2,6-dioxo-4-(trifluoromethyl)-1(2H)-pyrimidinyl]-4-fluoro-phenyl}imino}-4-oxo-3-thiazolidinepropionic acid] | 0.0 | 2.5 | 0.0 | 0.0 | 0.0 | 0.0 |  | 3.0 | 5.0 | 6.0 |  | 0.0 | 3.0 | 7.0 | 0.0 |  | 0.0 | 2.0 | 6.0 | 0.0 | Herbicidal rating MOOVA (MOOVA (Monochoria); rate 0.1250 kg/ha): 0.0; Herbicidal rating SAGPY ([5]; 0.0625 kg/ha): 0.0; Herbicidal rating SAGPY ([5]; 0.1250 kg/ha): 0.0
CCOC(=O)CN1C(=O)C[S+]([O-])/C1=N/c1cc(-n2c(=O)cc(C(F)(F)F)n(C)c2=O)c(F)cc1Cl (stereo not shown) [Compound 45, 2-{{2-Chloro-5-[3,6-dihydro-3-methyl-2,6-dioxo-4-(trifluoromethyl)-1(2H)-pyrimidinyl]-4-fluoro-phenyl}imino}-4-oxo-3-thiazolidineacetic acid, ethyl ester, 1-oxide] |  | 9.0 |  |  |  |  | 0.0 | 0.0 | 0.0 | 3.0 | 0.0 | 0.0 | 2.0 | 5.0 | 4.0 | 0.0 | 0.0 | 0.0 | 0.0 | 7.0 | Herbicidal rating ORYSAT (rice tolerance) (ORYSAT (Rice, Tebonnet) [1]; [7]): 3.0; Herbicidal rating ORYSAT (rice tolerance) (ORYSAT (Rice, Tebonnet) [1]; [8]): 2.0; Herbicidal rating ORYSAT (rice tolerance) (ORYSAT (Rice, Tebonnet) [1]; [9]): 2.0; Herbicidal rating ORYSAT (rice tolerance) (ORYSAT (Rice, Tebonnet) [1]; [10]): 3.0; Herbicidal rating MOOVA (MOOVA (Monochoria); rate 0.0313 kg/ha): 7.0; Herbicidal rating MOOVA (MOOVA (Monochoria); rate 0.1250 kg/ha): 9.0; Postemergence herbicidal rating CASOB (CASOB (Sicklepod); Rate 0.0156 kg/ha): 0.0; Postemergence herbicidal rating CASOB (CASOB (Sicklepod); Rate 0.0313 kg/ha): 0.0; Postemergence herbicidal rating CASOB (CASOB (Sicklepod); Rate 0.0625 kg/ha): 0.0; Herbicidal rating ORYSAT (rice tolerance) (ORYSAT (Rice, Tebonnet) [2]; [11]): 3.0; Herbicidal rating ORYSAT (rice tolerance) (ORYSAT (Rice, Tebonnet) [2]; [12]): 2.0; Herbicidal rating ORYSAT (rice tolerance) (ORYSAT (Rice, Tebonnet) [2]; [13]): 2.0; Herbicidal rating ORYSAT (rice tolerance) (ORYSAT (Rice, Tebonnet) [2]; [14]): 3.0; Preemergence herbicidal rating GLXMAW ([3]; rate 0.0156 kg/ha): 0.0; Preemergence herbicidal rating TRZAWR ([4]; rate 0.0156 kg/ha): 0.0; Herbicidal rating SAGPY ([5]; 0.0313 kg/ha): 0.0; Herbicidal rating SAGPY ([5]; 0.0625 kg/ha): 0.0; Herbicidal rating SAGPY ([5]; 0.1250 kg/ha): 0.0; Preemergence herbicidal rating ORYSAT (ORYSAT (Rice, Tebonnet) [6]; rate 0.0156 kg/ha): 0.0
